Laboratory results published in patent publication US7964613B2 (Asahi Kasei Pharma Corporation, priority 2007, dated 2011).

Tested on: intraocular pressure
Assay: Rabbit intraocular pressure reduction enhancing action, Test Example 7-1 (combination use)
Format: in vivo, Japanese white rabbit
Settings: 19-1 compound 0.01 weight % aqueous solution 50 μL, left-right eye difference at 2, 4, 6 hours, six rabbits
Method: However, the effect is not limited to the 19-1 compound, and the ophthalmic solution concentration of the 19-1 compound is not limited to those used in this test example. Moreover, as for the test compound used for combination use, similar effect can be obtained also with the compounds of the present invention represented with the example numbers mentioned in Test Example 3.
As a test compound, the 19-1 compound was dissolved in physiological saline, and the solution was neutralized by addition of sodium hydroxide (pH 7.0 to 8.0) to prepare a 0.01 weight % aqueous solution (19-1 compound aqueous solution). As the drugs for combination use, isopropyl unoprostone (trade name: Rescula, Santen Pharmaceutical) was used as a prostaglandin-related drug, and brinzolamide hydrochloride (trade name: Azopt, Alcon Japan) was used as […], as the marketed formulations as they were.
A Japanese white rabbit having a body weight of about 2 kg was placed in a positioner and naturalized for one week before the experiment. An opthalmologic local anesthesant (Benoxil) was administered to both eyes, and then intraocular pressure before instillation was measured by using a tonometer (Classic 30, Solan). A test aqueous solution or the drug for combination use was administered to the left eye, and the right eye was not treated (control eye). The test groups consisted of (1) control group, (2) group instilled only with the 19-1 compound aqueous solution (single drug group 1), (3) group instilled only with the drug for combination use (single drug group 2), and (4) group instilled with the drug for combination use and the 19-1 compound aqueous solution (combination use group), and six rabbits were used for each group. As for the rabbits of these groups, 50 μL of physiological saline was first instilled to the control group, single drug group 1, and single drug group 2, and the drug for combination use was first instilled in the same volume to the combination use group. […] The intraocular pressure thereafter was measured for each group 2, 4 and 6 hours after the second administration of the test compound, and the difference of the measured values for the left and right eyes at each measurement time was considered an intraocular pressure reduction value of each group. The largest difference of the intraocular pressure values for the left and right eyes among those of the measured values of the measurement times was considered the maximum intraocular pressure reduction value (max ? IOP) of each drug group.

N[C@H]1CCN(S(=O)(=O)c2cccc3cncc(Cl)c23)C1 [Example 19-1, (S)-3-Amino-1-(4-chloro-5-isoquinolinesulfonyl)pyrrolidine]
Max IOP (maximum intraocular pressure reduction value) (Table 4, Azopt 50 μL): 4.3 mmHg | Max IOP (maximum intraocular pressure reduction value) (Table 5, Rescula 50 μL): 4.3 mmHg
